Laboratory results taken from patent US20160244679A1, “SELECTIVE LIQUID-LIQUID EXTRACTION OF OXIDATIVE DESULFURIZATION REACTION PRODUCTS” (SAUDI ARABIAN OIL COMPANY, priority 2011, published 2016).

Key:
Type in all cases: physicochemical
[1] = Batch liquid-liquid extraction of oxidized model diesel with 70 W % aqueous formic acid, gas chromatography (Example 2, Table 11A); details: for total extraction: two batch extractions, about 1:1, 23° C., 1 atmosphere
Protocol: (§1) A quantity of 100 mL of a model diesel feed formed of xylene, DBT, DBT sulfoxide and DBT sulfone (with a total sulfur content of 1635 ppmw) was oxidized by 30 W % aqueous hydrogen peroxide at a temperature of 37° C. and at a pressure of 1 atmosphere for a period of 70 minutes with solid ZnO catalyst (1.2 g) and a ratio of oxidant (H2O2) to organic sulfur of 4:1 in acetic acid, about 10 mL. After the sold catalyst settled, the model diesel was removed for extraction of sulfoxidation products and removal of aqueous H2O2 using an embodiment of the selective solvent formulation of the present invention.
A quantity of oxidized model diesel feed as used in Example 1 was subjected to extraction to remove DBT sulfoxide and DBT sulfone using a selective solvent formulation of 70 W % aqueous formic acid. Two batch extractions were sequentially conducted using a solvent to model diesel ratio of about 1:1 at a temperature of 23° C. and at a pressure of 1 atmosphere for a period of 2 minutes, during which the contents were stirred. The total extraction of DBT sulfoxide and DBT sulfone was 94 W % and 56 W % respectively. Furthermore, the co-extraction of xylene was limited to 2 W % after the first extraction, and increased by 3.8 W % after the second extraction, based on the normalization percentage of the peak regions for the GC analysis for each extraction. The normalization method is qualitative and quasi-quantitative, so that the peak area varies. The slight positive (3.8%) of xylene is due to the normalization of the sum of all peaks and it was changed by material balance variation and/or with measurement error.
The co-extraction of DBT (not oxidized) was limited to 10 W % after both extractions. The total sulfur measured by sulfur speciation determined that the overall sulfur content was reduced by 56 W % as shown in Table 11B.

[2] = Batch liquid-liquid extraction of oxidized model diesel with 50 W % aqueous acetic acid, gas chromatographic analysis (Example 1, Table 10A); details: for total extraction: two batch extractions, solvent-to-model diesel about 1:1, 23° C., 1 atmosphere; for co-extraction: after both extractions
Protocol: as §1
DBT sulfoxide and DBT sulfone were extracted using a selective solvent formulation of 50 W % aqueous acetic acid. Two batch extractions were sequentially conducted using a solvent-to-model diesel ratio of about 1:1 at a temperature of 23° C. and at a pressure of 1 atmosphere for a period of 2 minutes, during which the contents were stirred. The total extraction of DBT sulfoxide and DBT sulfone was 95 W % and 55 W % respectively. Furthermore, the co-extraction of xylene was limited to 1.9 W % after both extractions, and the co-extraction of DBT (not oxidized) was limited to 13.2 W % after both extractions. The total sulfur measured by sulfur speciation (using an ANTEK Model 9000 analyzer commercially available from Antek Instruments, Inc., Houston, Tex. USA) determined that the overall sulfur content was reduced by 55 W % as shown at Table 10B.

[3] = Batch liquid-liquid extraction of oxidized model diesel with 50 W % aqueous methanol, gas chromatography (Example 3, Table 12A)
Protocol: as §1
A quantity of oxidized model diesel feed as used in Example 1 was subjected to extraction to remove DBT sulfoxide and DBT sulfone using a selective solvent formulation of 50 W % aqueous methanol. One extraction was conducted using a solvent to model diesel ratio of about 1:1 at a temperature of 23° C. and at a pressure of 1 atmosphere for a period of 2 minutes, during which the contents were stirred. The total extraction of DBT sulfoxide was 51.5 W %. […] The co-extraction of DBT (not oxidized) was limited to 3.1 W %. The total sulfur measured by sulfur speciation determined that the overall sulfur content was reduced by 16 W % as shown at Table 12B.

[4] = 70 W % aqueous formic acid, 2 minutes
[5] = Model diesel oxidized, before extraction
[6] = after 1st extraction, 70 W % aqueous formic acid
[7] = after 1st extraction, 70 W % aqueous formic acid, solvent:diesel about 1:1, 23° C., 2 minutes
[8] = after 2nd extraction, 70 W % aqueous formic acid
[9] = after 2nd extraction, 70 W % aqueous formic acid, solvent:diesel about 1:1, 23° C., 2 minutes
[10] = 50 W % aqueous acetic acid, 2 minutes
[11] = after 1st extraction, 50 W % aqueous acetic acid
[12] = after 1st extraction, 50 W % aqueous acetic acid, solvent:diesel about 1:1, 23° C., 2 minutes
[13] = after 2nd extraction, 50 W % aqueous acetic acid
[14] = after 2nd extraction, 50 W % aqueous acetic acid, solvent:diesel about 1:1, 23° C., 2 minutes
[15] = after 1st extraction, 50 W % aqueous methanol
[16] = after 1st extraction, 50 W % aqueous methanol, solvent:diesel about 1:1, 23° C., 2 minutes
[17] = 50 W % aqueous methanol, one extraction

| Molecule | total extraction [1, 4] [W %] | GC abundance in model diesel [1, 5] [abundance units] | change of GC abundance versus oxidized model diesel [1, 6] | GC abundance in model diesel [1, 7] [abundance units] | change of GC abundance versus oxidized model diesel [1, 8] | GC abundance in model diesel [1, 9] [abundance units] | total extraction [2, 10] [W %] | GC abundance in model diesel [2, 5] [abundance units] | change of GC abundance versus oxidized model diesel [2, 11] | GC abundance in model diesel [2, 12] [abundance units] | change of GC abundance versus oxidized model diesel [2, 13] | GC abundance in model diesel [2, 14] [abundance units] | GC abundance in model diesel [3, 5] [abundance units] | change of GC abundance versus oxidized model diesel [3, 15] | GC abundance in model diesel [3, 16] [abundance units] | co-extraction ([2]; 50 W % aqueous acetic acid) [W %] | co-extraction [3, 17] | further results |
| --- | --- | --- | --- | --- | --- | --- | --- | --- | --- | --- | --- | --- | --- | --- | --- | --- | --- | --- |
| O=S1(=O)c2ccccc2-c2ccccc21 [DBT sulfone, dibenzothiophene 5,5-dioxide] | 56 | 25.09 | (−30.4%) | 17.46 | (−55.6%) | 11.14 | 55 | 25.09 | (−23.7%) | 19.15 | (−54.8%) | 11.39 | 25.09 | (−2.4%) | 24.49 |  |  |  |
| [O-][s+]1c2ccccc2c2ccccc21 [DBT sulfoxide, dibenzothiophene 5-oxide] | 94 | 24.02 | (−73.1%) | 6.45 | (−94%) | 1.38 | 95 | 24.02 | (−67.5%) | 7.81 | (−94.8%) | 1.26 | 24.02 | (−51.5%) | 11.64 |  |  | total extraction ([3]; 50 W % aqueous methanol, one extraction, about 1:1, 23° C., 1 atmosphere, 2 minutes): 51.5 W % |
| c1ccc2c(c1)sc1ccccc12 [DBT, dibenzothiophene] |  | 24.44 | (−10.4%) | 21.89 | (−10.0%) | 22 |  | 24.44 | (−9.6%) | 22.09 | (−13.2%) | 21.22 | 24.44 | (−3.1%) | 23.69 | 13.2 | 3.1 W % | co-extraction ([1]; 70 W % aqueous formic acid, after both extractions): 10 W % |
| xylene |  | 9283.7 | (−1.9%) | 9111.6 | (+3.8%) | 9635.5 |  | 9283.7 | (−1.4%) | 9155.2 | (−1.9%) | 9108.19 | 9283.7 | +2.8%) | 9540.4 | 1.9 | no co-extraction | co-extraction ([1]; 70 W % aqueous formic acid, after the first extraction): 2 W %; increase after the second extraction (normalized GC peak) ([1]; 70 W % aqueous formic acid, after the second extraction): 3.8 W %; amount increased after extraction (normalized GC results) [3, 17]: 2.8 W % |
